Measured values published in publication PMC6364417, “Kinase inhibitor library screening identifies synergistic drug combinations effective in sensitive and resistant melanoma cells” (Journal of Experimental & Clinical Cancer Research : CR, 2019).

How the values were obtained:
Experiment in all cases: Kinase inhibitor library screening, PrestoBlue cell viability, 1 or 10 μM, 72 h
501Mel cells (parental) = test system: 501Mel cells (parental)
Summary of the method: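 Sensitive parental cells and their resistant derivatives were exposed to library compounds for 72 h. Values represent viability as a percentage of untreated cells.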

[1] = test system: A375-GP cells (Dabrafenib-resistant)
[2] = test system: 501Mel-XP cells (Vemurafenib-resistant)
[3] = test system: 501Mel-GP cells (Dabrafenib-resistant)
A375 cells (parental) = test system: A375 cells (parental)
[4] = test system: A375-XP cells (Vemurafenib-resistant)
[5] = test system: IGR37-XP cells (Vemurafenib-resistant)
[6] = test system: IGR37-GP cells (Dabrafenib-resistant)
IGR37 cells (parental) = test system: IGR37 cells (parental)

COCCOc1ccc2c(c1)ncn2-c1ccc2cccc(N3CCC(N)CC3)c2n1 [CP 673451]
Cell viability in kinase inhibitor library screening, 501Mel Parental, 10μΜ (501Mel cells (parental); 501Mel Parental, 10μΜ, 72 h, in %): 90.0 | Cell viability in kinase inhibitor library screening, A375 GP, 1μΜ ([1]; A375 GP, 1μΜ, 72 h): 105.4 | Cell viability in kinase inhibitor library screening, A375 GP, 10μΜ ([1]; A375 GP, 10μΜ, 72 h): 64.4 | Cell viability in kinase inhibitor library screening, 501Mel XP, 1μΜ ([2]; 501Mel XP, 1μΜ, 72 h, in %): 107.1 | Cell viability in kinase inhibitor library screening, 501Mel XP, 10μΜ ([2]; 501Mel XP, 10μΜ, 72 h, in %): 62.2 | Cell viability in kinase inhibitor library screening, 501Mel GP, 1μΜ ([3]; 501Mel GP, 1μΜ, 72 h, in %): 117.9 | Cell viability in kinase inhibitor library screening, 501Mel GP, 10μΜ ([3]; 501Mel GP, 10μΜ, 72 h, in %): 96.1 | Cell viability in kinase inhibitor library screening, A375 Parental, 10μΜ (A375 cells (parental); A375 Parental, 10μΜ, 72 h): 71.9 | Cell viability in kinase inhibitor library screening, A375 Parental, 1μΜ (A375 cells (parental); A375 Parental, 1μΜ, 72 h): 104.8 | Cell viability in kinase inhibitor library screening, A375 XP, 1μΜ ([4]; A375 XP, 1μΜ, 72 h): 109.7 | Cell viability in kinase inhibitor library screening, A375 XP, 10μΜ ([4]; A375 XP, 10μΜ, 72 h): 76.9 | Cell viability in kinase inhibitor library screening, IGR37 XP, 10μΜ ([5]; IGR37 XP, 10μΜ, 72 h): 31.6% | Cell viability in kinase inhibitor library screening, IGR37 XP, 1μΜ ([5]; IGR37 XP, 1μΜ, 72 h, in %): 105.2 | Cell viability in kinase inhibitor library screening, IGR37 GP, 10μΜ ([6]; IGR37 GP, 10μΜ, 72 h): 88.6% | Cell viability in kinase inhibitor library screening, IGR37 GP, 1μΜ ([6]; IGR37 GP, 1μΜ, 72 h, in %): 99.0 | Cell viability in kinase inhibitor library screening, IGR37 Parental, 10μΜ (IGR37 cells (parental); IGR37 Parental, 10μΜ, 72 h, in %): 105.1

COCC(=O)NC/C=C/c1ccc2ncnc(Nc3ccc(Oc4ccc(C)nc4)c(C)c3)c2c1 [CP-724714]
viability at 1 µM (501Mel cells (parental); Homo sapiens, 72 h, read-out: cell viability, 501Mel Parental, 1μΜ): 105% | viability at 10 µM (501Mel cells (parental); Homo sapiens, 72 h, read-out: cell viability, 501Mel Parental, 10μΜ): 102% | viability at 1 µM ([1]; Homo sapiens, A-375, 72 h, read-out: cell viability, A375 GP, 1μΜ): 103% | viability at 10 µM ([1]; Homo sapiens, A-375, 72 h, read-out: cell viability, A375 GP, 10μΜ): 95.4% | viability at 1 µM ([2]; Homo sapiens, 72 h, read-out: cell viability, 501Mel XP, 1μΜ): 101% | viability at 10 µM ([2]; Homo sapiens, 72 h, read-out: cell viability, 501Mel XP, 10μΜ): 77.8% | viability at 1 µM ([3]; Homo sapiens, 72 h, read-out: cell viability, 501Mel GP, 1μΜ): 109% | viability at 10 µM ([3]; Homo sapiens, 72 h, read-out: cell viability, 501Mel GP, 10μΜ): 87.4% | viability at 1 µM (A375 cells (parental); Homo sapiens, A-375, 72 h, read-out: cell viability, A375 Parental, 1μΜ): 101% | viability at 10 µM (A375 cells (parental); Homo sapiens, A-375, 72 h, read-out: cell viability, A375 Parental, 10μΜ): 90.2% | viability at 1 µM ([4]; Homo sapiens, A-375, 72 h, read-out: cell viability, A375 XP, 1μΜ): 109% | viability at 10 µM ([4]; Homo sapiens, A-375, 72 h, read-out: cell viability, A375 XP, 10μΜ): 103% | viability at 1 µM ([5]; Homo sapiens, IGR-37, 72 h, read-out: cell viability, IGR37 XP, 1μΜ): 89.5% | viability at 10 µM ([5]; Homo sapiens, IGR-37, 72 h, read-out: cell viability, IGR37 XP, 10μΜ): 52.3% | viability at 1 µM ([6]; Homo sapiens, IGR-37, 72 h, read-out: cell viability, IGR37 GP, 1μΜ): 91.8% | viability at 10 µM ([6]; Homo sapiens, IGR-37, 72 h, read-out: cell viability, IGR37 GP, 10μΜ): 86.1% | viability at 1 µM (IGR37 cells (parental); Homo sapiens, IGR-37, 72 h, read-out: cell viability, IGR37 Parental, 1μΜ): 101% | viability at 10 µM (IGR37 cells (parental); Homo sapiens, IGR-37, 72 h, read-out: cell viability, IGR37 Parental, 10μΜ): 98%

Cc1nc(N)sc1-c1ccnc(Nc2ccc(N3CCOCC3)cc2)n1 [CYC116]
cell viability (kinase inhibitor library screening) (501Mel cells (parental); 501Mel Parental, 1μΜ, 72 h): 99.4% | cell viability (kinase inhibitor library screening) (501Mel cells (parental); 501Mel Parental, 10μΜ, 72 h): 67.9% | cell viability (kinase inhibitor library screening) ([1]; A375 GP, 1μΜ, 72 h): 52.0% | cell viability (kinase inhibitor library screening) ([1]; A375 GP, 10μΜ, 72 h): 33.0% | cell viability (kinase inhibitor library screening) ([2]; 501Mel XP, 1μΜ, 72 h): 94.4% | cell viability (kinase inhibitor library screening) ([2]; 501Mel XP, 10μΜ, 72 h): 30.0% | cell viability (kinase inhibitor library screening) ([3]; 501Mel GP, 1μΜ, 72 h): 104.5% | cell viability (kinase inhibitor library screening) ([3]; 501Mel GP, 10μΜ, 72 h): 44.7% | cell viability (kinase inhibitor library screening) (A375 cells (parental); A375 Parental, 10μΜ, 72 h): 33.9% | cell viability (kinase inhibitor library screening) (A375 cells (parental); A375 Parental, 1μΜ, 72 h): 54.1% | cell viability (kinase inhibitor library screening) ([4]; A375 XP, 1μΜ, 72 h): 75.4% | cell viability (kinase inhibitor library screening) ([4]; A375 XP, 10μΜ, 72 h): 46.7% | cell viability (kinase inhibitor library screening) ([5]; IGR37 XP, 1μΜ, 72 h): 98.8% | cell viability (kinase inhibitor library screening) ([5]; IGR37 XP, 10μΜ, 72 h): 26.5% | cell viability (kinase inhibitor library screening) ([6]; IGR37 GP, 1μΜ, 72 h): 92.1% | cell viability (kinase inhibitor library screening) ([6]; IGR37 GP, 10μΜ, 72 h): 50.1% | cell viability (kinase inhibitor library screening) (IGR37 cells (parental); IGR37 Parental, 1μΜ, 72 h): 94.2% | cell viability (kinase inhibitor library screening) (IGR37 cells (parental); IGR37 Parental, 10μΜ, 72 h): 59.4%

COc1cc2c(Oc3ccc4[nH]c(C)cc4c3F)ncnc2cc1OCCCN1CCCC1 [Cediranib (AZD2171)]
cell viability (kinase inhibitor library screening) (501Mel cells (parental); 501Mel Parental, 10μΜ, in %): 1.2 | cell viability (kinase inhibitor library screening) ([1]; A375 GP, 1μΜ, in %): 97.5 | cell viability (kinase inhibitor library screening) ([1]; A375 GP, 10μΜ, in %): 15.1 | cell viability (kinase inhibitor library screening) ([2]; 501Mel XP, 1μΜ, in %): 89.8 | cell viability (kinase inhibitor library screening) ([2]; 501Mel XP, 10μΜ, in %): -0.129 | cell viability (kinase inhibitor library screening) ([3]; 501Mel GP, 1μΜ, in %): 105.5 | cell viability (kinase inhibitor library screening) ([3]; 501Mel GP, 10μΜ, in %): 0.9 | cell viability (kinase inhibitor library screening) (A375 cells (parental); A375 Parental, 1μΜ, in %): 105.9 | cell viability (kinase inhibitor library screening) (A375 cells (parental); A375 Parental, 10μΜ, in %): 27.2 | cell viability (kinase inhibitor library screening) ([4]; A375 XP, 1μΜ, in %): 104.3 | cell viability (kinase inhibitor library screening) ([4]; A375 XP, 10μΜ, in %): 4.2 | cell viability (kinase inhibitor library screening) ([5]; IGR37 XP, 1μΜ, in %): 97.7 | cell viability (kinase inhibitor library screening) ([5]; IGR37 XP, 10μΜ, in %): 1.6 | cell viability (kinase inhibitor library screening) ([6]; IGR37 GP, 1μΜ, in %): 99.5 | cell viability (kinase inhibitor library screening) ([6]; IGR37 GP, 10μΜ, in %): 4.2 | cell viability (kinase inhibitor library screening) (IGR37 cells (parental); IGR37 Parental, 1μΜ, in %): 94.9 | cell viability (kinase inhibitor library screening) (IGR37 cells (parental); IGR37 Parental, 10μΜ, in %): 1.6
